According to PMC2585100 (Retrovirology, 2008):
Like-named read-outs stand apart in the source and are kept apart here.

How the values were obtained:
[1] = test system: HIV-Lai env mediated fusion of Hela-env-Lai cells with HeLa P4.2 (Hela-CD4-LTR-LacZ) cells; experiment: HIV-1 env-mediated cell-to-cell fusion assay (β-galactosidase read-out); format: cell-based; settings: for IC50: 6 h co-culture at 37°C, DMEM with calcium, others chemically synthesized; for inhibition of cell-cell fusion: peptide at 1 μM
Description: Fifteen minutes later, target cells (HeLa P4.2) were added to the wells (10^5 per well) and co-cultured for 6 h at 37°C. Then, cell-cell fusion was monitored by beta-galactosidase assay. Briefly, cells were lysed in 80 μl of lysis buffer (5% NP40 in PBS without CaCl2 and MgCl2) for 10 min and then centrifuged at 10,000 g for 5 min at 4°C. Equal volumes (50 μl) of lysate and reaction buffer (120 mM Na2HPO4, 80 mM NaH2PO4, 2 mM MgSO4, 20 mM KCl, 10 mM β-mercaptoethanol, 16 mM CPRG (chlorophenol red-β-D-galactopyranoside, Roche, France) were combined and incubated for 60 min at room temperature in the dark. The absorbance at 590 nm of each sample was measured.
Cell fusion experiments are convenient assays for analysis of the mechanism by which peptides inhibit virus entry into host cells. Hela-CD4-LTR-LacZ (P4.2) cells stably express the human CD4 molecule, CXCR4 and long terminal repeat (LTR) driven lacZ gene. Hela-env-Lai cells stably express HIV-Lai envelope glycoproteins gp120 and gp41, and the HIV-1 transactivator Tat. Fusion of Hela-Env-Lai cells and P4.2 cells results in transferring Tat to P4.2 cell cytosol. Tat in turn, transactivates the LTR and initiates transcription of the lacZ gene. The extent of fusion is directly related to β-galactosidase activity in cell lysates.
Different concentrations (≤ 1 μM) of peptides were incubated with HeLa-env-Lai cells in culture medium (DMEM) that contained calcium and magnesium, prior to addition of the P4.2 cells.

[2] = Far-UV circular dichroism, α-helical content; format: physicochemical; settings: 10 μM in PBS
Description: Far-UV circular dichroism (CD) was performed using 10 μM of each peptide solution in PBS. Each spectrum was recorded from 260 nm to 190 nm at 25°C by using a Jasco CD spectrophotometer (Jasco, Japan) with a cell path length of 0.05 cm. Spectra were collected as an average of three scans, with a scan speed of 20 nm/min and a response time of 2 sec. The control (solvent) CD spectra were subtracted to eliminate background effects. Data were reported in millidegrees and converted to molar ellipticity [θ] in units as follows: degree cm^2 dmol^-1. The percentage of α-helical content was estimated by assuming that a [θ]222 value of -33000 deg cm^2 dmol^-1corresponds to 100% α-helix.
CD spectroscopy is a practical and efficient method for secondary structure characterization of a protein or peptide.
Far-UV CD spectra were all recorded at room temperature, with a path-length of 0.05 cm. Peptide concentration was 10 microM in PBS, pH 7.2.

[3] = test system: T20-resistant HIV-1 strains (ENF-1 and ENF-2); experiment: Single-cycle infectivity assay, T20-resistant strains, U373MG-CD4-CCR5-LTR-lacZ cells; format: cell-based; settings: at concentrations as much as 250- to 2000-fold higher than the IC50 of P5
Excerpt: (§1) We constructed viruses bearing the envelope glycoproteins derived from virus populations present before and during T20 treatment of a patient who received T20 as part of a salvage therapy, as we reported earlier. […] Each chimeric proviral clone was obtained by replacing the AgeI-NheI fragment of a modified pNL4-3 vector (nt 6346 to 8287 in pNL4-3) by a AgeI-NheI PCR fragment amplified from the envelope subclone. Sequences of oligonucleotides used for PCR and site-directed mutagenesis can be provided upon request. […] [29].
(§2) These assays were performed as previously described. Two days before infection, U373MG-CD4-CCR5-LTR-lacZ cells were seeded into 96-well plates at a density of 2,000 cells/well. […] Forty hours after infection, cells were lysed using 100 μl/well of lysis buffer (5 mM MgCl2 and 0.1% NP-40 in 1× phosphate-buffered saline), prior to addition of 100 μl/well of chromogenic substrate (6 mM chlorophenol red-β-D-galactopyranoside; CPRG, Roche) in lysis buffer.

[4] = test system: primary human CD4+ T cells; experiment: Binding of peptides to CD4+ target cells (2F5 IgG, flow cytometry), primary cells; settings: 1 h at room temperature, RPMI 10% FCS, micro-molar range
Description: (§3) Binding of peptides was evaluated using either the lymphocytic cell line CD4^+- CEM-NK^r (NK-resistant) cells (NIH AIDS Reagent Programm, USA)or PHA-activated CD4^+ T cells purified from peripheral blood of 5 healthy donors using human CD4^+ T cells enrichment kit (StemCell Technologies Inc., France). 5 × 10^5 cells were incubated with indicated concentrations of peptide for 1 h at room temperature in a total volume of 50 microliter/μl of RPMI 10%FCS. After 2 wahses in cold medium, bound peptide was detected with the human IgG 2F5 (10 microg/μg), or irrelevant human IgG as control, for 1 h at 37°C followed anti-human IgG-FITC mAb (1:1000, Jackson ImmunoResearch, France). Binding of peptides to CD4^+ cells was evaluated by flow cytometry (FACSCalibur, Becton Dickinson) on 10^4 events, gated by forward and side scatter and analyzed for FL1 (FITC channel) using the Cytomix RXP software.

[5] = test system: HIV-1Lai (X4 virus); experiment: Neutralization of HIV-1 infection of PBMC, intracellular p24 staining (X4 virus); format: cell-based; settings: peptide at 1 μM
Description: (§4) Neutralization of HIV-1 infectivity for PBMC was performed as previously described by analysing intracellular staining of p24 Ag after a single round of infection. […] PHA-stimulated PBMC (25 μl, 2 × 10^5 cells/well) were added to the mixture. After overnight incubation, 100 μl of culture medium containing 20 U/ml of IL-2 were added and cells were cultured for an additional 24 h at 37°C. For intracellular p24 Ag staining, cells were fixed with 4% paraformaldehyde for 20 min, permeabilized with 0.05% saponin and stained with a fluorescent anti-p24 mAb (PE-anti-p24, KC57 clone, Beckman Coulter, Hialeah, FL) as a 1/160 dilution in 1% BSA, 0.05% saponin in PBS (pH = 7.4) for 15–20 min at 4°C. The percentage of p24 positive cells was monitored by flow cytometry (FACScalibur with the XL software) by gating 20,000 events on the living cell population identified by forward- and side-scatter parameters.

[6] = test system: CD4+ CEM-NKr lymphocytic cell line; experiment: Binding of peptides to CD4+ target cells (2F5 IgG, flow cytometry), cell line; set-up: species or system human; settings: 1 h at room temperature, RPMI 10% FCS, micro-molar range
Description: as §3

[7] = test system: HIV-1JRCSF (R5 virus); format: cell-based; settings: PBMC, peptide at 1 μM
Description: as §4

[8] = set-up: method as in 2 sources, one per row (each row's own in cited_ref): ref 20 = [20]; PMID 17553560; doi:10.1016/j.ceca.2007.04.011; Yu H Alfsen A Tudor D Bomsel M The binding of HIV-1 gp41 membrane proximal domain to its mucosal receptor, galactosyl ceramide, is structure-dependent Cell Calcium 2008 43 73 82 17553560 10.1016/j.cec ||| ref 36 = [36]; PMID 17276993; doi:10.1074/jbc.M609148200; Liu S Jing W Cheung B Lu H Sun J Yan X Niu J Farmar J Wu S Jiang S HIV gp41 C-terminal heptad repeat contains multifunctional domains. Relation to mechanisms of action of anti-HIV peptides J Biol Chem; settings: Table 1, left column; cited from earlier work
[9] = test system: T20-sensitive HIV-1 strains (pre-ENF and JRCSF); experiment: Single-cycle infectivity assay, T20-sensitive strains, U373MG-CD4-CCR5-LTR-lacZ cells; format: cell-based; settings: P5 more potent than T20
Excerpt: as §1, §2

Row | Substance | IC50 ([1]; Table 2, right column, alone or in the presence of LZ, P7 recombinant, read-out: IC50 (nM, Mean ± S.D.)) [nM] | inhibition of cell-cell fusion [1] | [θ]222 ([2]; Table 1, chemically synthesized peptides alone or with LZ) | IC50 ([1]; Table 2, left column, peptides 50 to 1000 nM, P5L recombinant, read-out: IC50g (nM, Mean ± S.D.)) [nM] | [θ]222 ([2]; Table 1, left column, chemically synthesized peptides alone or with N36) | inhibition of T20-resistant strains (in words) [3] | binding to primary human CD4+ T cells (in words) [4] | inhibitory activity, X4 virus infection ([5]; PBMC) | inhibition of PBMC infection by X4 virus (in words) ([5]; human PBMC, HIV-Lai) | binding to CD4+ lymphocyte cell line CEM (in words) [6] | inhibitory activity, R5 virus infection [7] | [θ]222 [8] | activity against T20-sensitive strains (in words) [9]
1 | LZ: peptide comprising the gp41 N-terminal leucine zipper domain, a.a. 560–594 (EAQQHLLQLTVWGIKQLQARILAVERYLKDQQLLG; gp41; UniProt P04578 560-594, looked up, fragment) | > 1000 | negligible inhibition | -4 10^-3deg cm^2dmol^-1 | – | – | – | – | – | – | – | – | – | –
2 | N36: gp41 NHR peptide a.a. 546–581, from the AIDS Research and Reference Reagent Program [Peptide N36] | – | negligible inhibition | – | > 1000 | -6 10^-3deg cm^2dmol^-1 | – | – | – | – | – | – | – | –
3 | Enfuvirtide | – | – | – | – | – | failed to inhibit | unable to bind | greater than 90% | potent inhibition | unable to bind | greater than 90% | -2 10^-3deg cm^2dmol^-1 | active
